In PMC11595998, “Characterization of a New Hsp110 Inhibitor as a Potential Antifungal” (Journal of Fungi, 2024):
Numbered stars: 1 amine (or outer) side, 2 acyl side, 3 side chain; on linkers, the order of the positions; unused ones are H or OH. Bridge positions count the residues as written; N and C are the ends. Square brackets hold non-standard residues; d marks the D form. Peptide text beside a SMILES is read from it. * marks the point of attachment. pTerphenylCO(4''-OnC5H11) = CCCCCOc1ccc(-c2ccc(-c3ccc(C(=O)*)cc3)cc2)cc1; Orn(4R-OH,5R-OH) = O=C([C@H](C[C@@H](O)[C@@H](O)N[*:3])N[*:1])[*:2]; hTyr(3S-OH,4S-OH) = N[C@H](C(=O)O)[C@H](O)[C@@H](O)c1ccc(O)cc1; Pro(3S-OH,4S-Me) = C[C@H]1CN[C@H](C(=O)O)[C@H]1O; Hyp = O=C(O)[C@@H]1C[C@@H](O)CN1

Assays:
[1] = system: C. albicans strain SC5314; test: Checkerboard synergy test (FICI) of 2H with common antifungals; format: cell-based, Candida albicans; conditions: combination with 2H; SC5314, YNB medium, 37 °C, 24 h; synergy FICI ≤ 0.5, additive or indifferent > 0.5 and < 2, antagonistic > 2
Experimental: The assay was carried out as published previously. SC5314, the most widely-used wild-type C. albicans strain, was obtained from Dr. Ronda Rolfes (Georgetown University). An aliquot of SC5314 was thawed and grown overnight in Sabouraud medium at 30 °C. After harvesting by centrifugation at 1200× g for 5 min, the cells were washed twice using PBS. Afterward, the inoculum was prepared in the YNB medium, a yeast synthetic medium, with an OD600 of 0.0005 (corresponding to 5 × 10^3–1 × 10^4 colony forming units (CFU)). Five common antifungals (Amphotericin B, Anidulafungin, Flucytosine, Clotrimazole, and Itraconazole) were prepared in either DMSO or ddH2O according to the manufacturer’s instructions. The antifungal drugs were serially diluted in DMSO or ddH2O and added to wells containing 100 µL inoculum in sterile 96-well culture plates. In addition, serial dilutions of 2H were added in combination with the above antifungals. Wells without any compounds were used as growth controls. Incubation at 37 °C followed, and optical density measurements at 600 nm were taken after 24 h with wells containing only medium as blanks. The fractional inhibitory concentration index (FICI) was calculated to test the synergistic effect between each of these common antifungals with 2H according to the published protocols.
A checkerboard (or chequerboard) assay was carried out to assess the fractional inhibitory concentration index (FICI). The widely-used wild-type C. albicans strain SC5314 was used. […] More antifungals may need to be examined to find potential synergistic effects with 2H.
Figure 1 Synergy testing between 2H and several common antifungal drugs (A–E); Checkerboard analysis of antifungal activity for combination of 2H and several common antifungals. The heat-map plots of relative growth (calculated by setting the growth without compounds as 100%) were presented: (A) Amphotericin B; (B) Anidulafungin; (C) Flucytosine; (D) Clotrimazole; (E) Itraconazole. Color scale for relative growth is provided on the right. (F) The Fractional Inhibitory Concentration Index (FICI) for the combination of 2H and several common antifungals. The FICI is interpreted as follows: a synergistic effect when FICI ≤ 0.5; an additive or indifferent effect when FICI > 0.5 and <2; an antagonistic effect when FICI > 2. TEXT PRINTED IN THE PICTURE: (F) Amphotericin B: FICI: 1.077±0.060 | (F) Anidulafungin: FICI: 1.108±0.084 | (F) Clotrimazole: FICI: 0.741±0.092 | (F) Flucytosine: FICI: 1.261±0.075 | (F) Itraconazole: FICI: 0.862±0.013

[2] = system: C. albicans strain SC5314; design: method as in PMID 37173314; conditions: combination with 2H; previous test; cited from earlier work
[3] = system: C. neoformans Type Strain H99; test: Viability test, minimum fungicidal concentration (MFC); format: cell-based, Cryptococcus neoformans
Experimental: (§1) We followed the Clinical and Laboratory Standards Institute for yeasts (CLSI M27 [80]) and our previously published protocol for the determination of MIC and MFC [33]. The C. neoformans Type Strain H99 was obtained from the laboratory of Dr. Joseph Heitman (Duke University). After growing in Sabouraud medium, this strain was resuspended in 35% glycerol, aliquoted, flash-frozen in liquid nitrogen, and stored in a −80 °C freezer.
(§2) For each experiment, a 100 µL frozen aliquot of H99 was thawed and diluted into 5 mL Sabouraud medium. After being grown at 30 °C overnight, the culture was pelleted and washed twice using PBS at room temperature. The inoculum was prepared using the YNB medium, a yeast synthetic medium, with 5 × 10^3–1 × 10^4 colony forming units (CFU) (corresponding to an OD600 of 0.0005). Sterile 96-well culture plates were used for growth tests. After aliquoting 100 µL of the inoculum into each well, serial dilutions of 2H or fluconazole were added to the wells and mixed well by pipetting up and down. After shaking at 37 °C for 48 h, growth was measured by absorbance at 600 nm using a spectrophotometric plate reader. Wells with only medium were used as blanks and wells with only inoculum were used as growth controls. […]
(§3) Figure 3 2H inhibits the growth of Cryptococcus neoformans and is fungicidal. […] (B) The MIC90 and MFC of 2H were determined on C. neoformans strain H99. […]

[4] = system: C. neoformans Type Strain H99; test: Antifungal susceptibility (growth) test, MIC90; format: cell-based, Cryptococcus neoformans; conditions: H99, YNB medium, 37 °C, 48 h
Experimental: as §1, §2, §3

For `CCC(C)n1ncn(-c2ccc(N3CCN(c4ccc(OCC5COC(Cn6cncn6)(c6ccc(Cl)cc6Cl)O5)cc4)CC3)cc2)c1=O` (centres unmarked) [Itraconazole], the “Fractional Inhibitory Concentration Index (FICI)” value [1] was 0.862±0.013.
For `OC(Cn1cncn1)(Cn1cncn1)c1ccc(F)cc1F` [Fluconazole], the “Synergistic effect between 2H and fluconazole” value [2] is given as “no apparent synergistic effect”, the Fungicidal or fungistatic [3] is given as “fungistatic” and the “MIC90 (minimum inhibitory concentration for 90% inhibition)” value [4] is given as 16 µM.
With `Nc1[nH]c(=O)ncc1F` [Flucytosine] the “Fractional Inhibitory Concentration Index (FICI)” value [1] was 1.261±0.075.
For `C[C@@H]1[C@H](O)[C@@H](C)/C=C/C=C/C=C/C=C/C=C/C=C/C=C/[C@H](O[C@@H]2O[C@H](C)[C@@H](O)[C@H](N)[C@@H]2O)C[C@@H]2O[C@](O)(C[C@@H](O)C[C@@H](O)[C@H](O)CC[C@@H](O)C[C@@H](O)CC(=O)O[C@H]1C)C[C@H](O)[C@H]2C(=O)O` [Amphotericin B], the “Fractional Inhibitory Concentration Index (FICI)” value [1] was 1.077±0.060.
With `Clc1ccccc1C(c1ccccc1)(c1ccccc1)n1ccnc1` [Clotrimazole] the “Fractional Inhibitory Concentration Index (FICI)” value [1] was 0.741±0.092.
For `CCCCCOc1ccc(-c2ccc(-c3ccc(C(=O)N[C@H]4C[C@@H](O)[C@@H](O)NC(=O)[C@@H]5[C@@H](O)[C@@H](C)CN5C(=O)[C@H]([C@@H](C)O)NC(=O)[C@H]([C@H](O)[C@@H](O)c5ccc(O)cc5)NC(=O)[C@@H]5C[C@@H](O)CN5C(=O)[C@H]([C@@H](C)O)NC4=O)cc3)cc2)cc1` [Anidulafungin] ({pTerphenylCO(4''-OnC5H11)}-[Orn(4R-OH,5R-OH)]T[Hyp][hTyr(3S-OH,4S-OH)]T[Pro(3S-OH,4S-Me)]; lactam 1-C), the “Fractional Inhibitory Concentration Index (FICI)” value [1] was 1.108±0.084.
